The subject of this assay is DSS-induced IBD in mice. Description: Intervention effect on DSS-induced acute IBD mouse model. It is filed as in vivo, Male C57BL6 mice. The following applies: DSS 2.5 wt % induced acute IBD mice, 50 μg/kg intragastric; for colonic histopathologic score / colon length: 7 days pre-administration then daily with DSS, x±SD; for colonic histopathologic score: HE staining; for colon length: in cm (unit assumed). As to the method: The administration of a DSS solution with a specified concentration to mice can induce an acute IBD model characterized by diarrhea, hematochezia, ulcer, and granulocyte infiltration. Mice were randomly grouped according to body weights of the mice. 40 healthy male C57BL6 mice were divided into four groups each with 10 mice:
blank control group: the mice were each intragastrically administered with water every day at a volume of 0.4 mL/20 g;
model group: the mice were each intragastrically administered with a DSS aqueous solution of a mass fraction of 2.5 wt % consecutively for 7 days, where the DSS aqueous solution was freshly prepared and changed every day;
MIMP positive control group: the mice were each given a pre-administration process for one week, that is, the mice were each intragastrically administered with an MIMP solution of a mass fraction of 50 μg/kg for the first 7 days, and then from day 8, the mice were each intragastrically administered with a DSS aqueous solution of a mass fraction of 2.5 wt % (at a volume of 0.4 mL/20 g) and an MIMP solution of a mass fraction of 50 μg/kg (at a volume of 0.4 mL/20 g) every day; and
MP-B experimental group: the mice were each given a pre-administration process for one week, that is, the mice were each intragastrically administered with an MP-B solution of a mass fraction of 50 μg/kg for the first 7 days, and from day 8, the mice were each intragastrically administered with a DSS aqueous solution of a mass fraction of 2.5 wt % (at a volume of 0.4 mL/20 g) and an MP-B solution of a mass fraction of 50 μg/kg (at a volume of 0.4 mL/20 g) every day.
The body weight changes of mice in each group were recorded every day to determine whether the acute IBD mouse model was successfully established.
A mouse colon between an anus end to an ileocecal end was integrally collected, and a length of the colon was measured; and the colon was dissected along a longitudinal axis, feces therein were rinsed off, and then the colon was stored in 4% paramethanol.
The colon sample stored in 4% paramethanol in step 1.2 was subjected to histopathological section, stained with hematoxylin-eosin (HE), and dehydrated, obtained sections were sealed and examined under an optical microscope, and the histopathological scoring was conducted by two blind examination operators:
Experimental data in the above experimental method were expressed as (x±SD), the GraphPad Prism (ver. 8.0, GraphPad Software Inc., San Diego, Calif., USA) was used to plot a chart, the SPSS Program (ver. 25.0, SPSS Inc., Chicago, Ill., USA) was used for statistical test, and one-way ANOVA or independent two-sample t-test were used for significance test when the normality and homogeneity of variances were met. It was assumed that α=0.05, and P<0.05 indicates a statistically significant difference.

For the molecule “SPLGSLDGRETMYNLGGVKYLFARMDQLKKQ (SPLGSLDGRXTMYNLXGVKYLFARXDQLKKQ; Sequence is synthesized; (10)..(10) Xaa can be Arg, Phe, Glu, Thr, or absent; (16)..(16) Xaa can be Asn, Val, Leu, Gly, or absent; (25)..(25) Xaa can be Ser, Glu, Met, Arg, or absent) [MP-B]”, the “colonic histopathological observation (HE staining micrographs)” value is listed as “no obvious inflammation”, the colonic histopathologic score is 1.4±0.6 and the colon length was determined as 8.0±0.5.

B1: THTVGSYFSVQNGYVGAFSQALGNSEYAMNSPLGSLDGRTTMYNLLGVKYLFAREDQ LKKQ (peptide, listed as Lactobacillus plantarum)
chain: THTVGSYFSVQNGYVGAFSQALGNSEYAMNSPLGSLDGRTTMYNLLGVKYLFAREDQLKKQ
notes: positive control
The molecule B1 gave a colonic histopathologic score of 3.1±0.2 and a colon length of 7.6±0.5.
